Laboratory results: article PMC5917001, “Counter-ion effect on antistaphylococcal activity and cytotoxicity of selected antimicrobial peptides” (Amino Acids, 2018)
Where no end group is shown, it is not given here.

Test system: S. aureus (29): reference (5) and clinical (24) strains
Conditions: for Mean value of MIC: mean over 29 S. aureus strains (Table 5); for MIC range among strains: range over all S. aureus strains and the salts of the peptide
Procedure: Microbiological assays were performed using reference and clinical strains of Staphylococcus aureus. Minimal inhibitory concentrations (MIC) were determined by broth microdilution method on 96-well polystyrene plates according to Clinical and Laboratory Standards Institute (CLSI) recommendations [Clinical and Laboratory Standards Institute (CLSI) [2012]]. […] All plates were incubated for 18 h at 37 °C. […] Reference strains of S. aureus: ATCC 6538, ATCC 6538/P, ATCC 9144, ATCC 12598, and ATCC 25923 were obtained from the Polish Collection of Microorganisms (PCM, Polish Academy of Sciences, Wrocław), whereas 24 clinical strains were isolated from the patients of the Clinic of Dermatology, Venereology and Allergology (Medical University of Gdańsk). Nine strains were characterized as methicillin-resistant (MRSA). Preliminary identification and detection was conducted on the ChromID MRSA/ChromID S. aureus biplate (bioMérieux) for the simultaneous detection of S. aureus and methicillin-resistant S. aureus (MRSA). All experiments were conducted at least in triplicate.
To asses an overall activity of peptides, the mean MIC values were calculated.

Row | Substance | Mean value of MIC | MIC range among strains [µg/mL]
1 | GIGKFLKKAKKFGKAFVKILKK-NH2 [Pexiganan TFA^−] | 8.4 µg/mL | –
2 | FLPLIGRVLSGIL-NH2 [Temporin A AcO^−] | 4.2 µg/mL | –
3 | GLFDVIKKVASVIGGL-NH2 [Citropin 1.1] | – | 1 to 32
4 | FLPLIGRVLSGIL-NH2 [Temporin A TFA^−] | 5.9 µg/mL | –
5 | KWKLFKKIGAVLKVL-NH2 [CAMEL] | below 3.5 µg/mL | ≤ 0.25 to 8
6 | GIGKFLKKAKKFGKAFVKILKK-NH2 [Pexiganan Cl^−] | 7.4 µg/mL | –
